Consider 15 compounds from PubChem BioAssay (NCI).

SMILES strings stand for the structures.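 These data come from cells grown in 96-well plates and exposed to compound for 48 hours at five concentrations. The concentration for 50% growth inhibition is given as GI50. At the TGI there is no net growth.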

Some test systems named below: COLO 205 colon; CAKI-1 renal; LOX IMVI melanoma; EKVX NSCLC; OVCAR-3 ovarian; HOP-62 NSCLC; MALME-3M melanoma; 786-0 renal; ACHN renal; HCC-2998 colon.
What all share (test): NCI anticancer screen, dose series, 48 h

With `NC(=O)c1cc2ccccc2c(N=Nc2ccccc2)c1O`, the TGI with COLO 205 colon is greater than 100 µM; in the assay with CAKI-1 renal it was 69.9 µM; in the assay on LOX IMVI melanoma it was greater than 100 µM; with EKVX NSCLC, greater than 100 µM; with OVCAR-3 ovarian, greater than 100 µM; in the assay on HOP-62 NSCLC it was greater than 100 µM. The TGI in the assay with MALME-3M melanoma and in the assay with 786-0 renal was greater than 100 µM throughout.
For the compound `CCOC(=O)Nc1ccc(S(=O)(=O)Nc2ccc(Br)cc2)cc1`, the TGI was 30.4 µM in the assay with COLO 205 colon; greater than 100 µM with CAKI-1 renal; 85.2 µM in the assay on ACHN renal; greater than 100 µM in the assay with LOX IMVI melanoma; 89.5 µM in the assay with EKVX NSCLC; greater than 100 µM in the assay with OVCAR-3 ovarian. Also, the TGI in the assay on HOP-62 NSCLC is 86.7 µM; in the assay on MALME-3M melanoma, greater than 100 µM; in the assay on 786-0 renal, greater than 100 µM.
Turning to `CCC1OC2C(CC=C(C)C)=C3OC(C)(O)C(C)(CC)C(O)C3=C3OC(=O)C=C1C32` (centres undefined), the TGI in the assay on COLO 205 colon was greater than 100 µM; in the assay with CAKI-1 renal, greater than 100 µM; in the assay with ACHN renal, greater than 100 µM; in the assay on LOX IMVI melanoma it was 35.9 µM; in the assay on EKVX NSCLC, greater than 100 µM; with HCC-2998 colon, greater than 100 µM. In the assay with 786-0 renal, this compound gave a TGI greater than 100 µM.
For the compound `N=C(/C=C/c1ccc(-c2cn3cc(/C=C/C(=N)N4CCOCC4)ccc3n2)cc1)N1CCOCC1`, the TGI in the assay on COLO 205 colon, with CAKI-1 renal, in the assay on ACHN renal, with EKVX NSCLC, in the assay with OVCAR-3 ovarian and in the assay on HOP-62 NSCLC was greater than 100 µM in each case. Also, the TGI in the assay on MALME-3M melanoma, with HCC-2998 colon and with 786-0 renal was greater than 100 µM in each case.
Regarding `CCc1nnc2sc(-c3ccc(-c4ccc(Cl)cc4Cl)o3)nn12`, the TGI in the assay with COLO 205 colon, in the assay on CAKI-1 renal, in the assay on ACHN renal, in the assay on LOX IMVI melanoma, in the assay on EKVX NSCLC and with OVCAR-3 ovarian was greater than 100 µM each time. In addition, the TGI with HOP-62 NSCLC, in the assay on MALME-3M melanoma and in the assay on 786-0 renal was greater than 100 µM in each case.
`COc1ccc(N(C(=O)OC(C)(C)C)[C@@H]2C(C)=C[C@H]([S@@](=O)c3ccc(C)cc3)[C@@H]3C(=O)N(C)C(=O)[C@@H]32)cc1`: the TGI amounted to 31 µM in the assay with COLO 205 colon; 52.6 µM with CAKI-1 renal; 43.8 µM in the assay on ACHN renal; 17.5 µM in the assay on LOX IMVI melanoma; 9.85 µM in the assay on EKVX NSCLC; 80.8 µM in the assay with OVCAR-3 ovarian. The TGI turned out to be 64.2 µM in the assay on HOP-62 NSCLC, 71.8 µM in the assay on MALME-3M melanoma and 37.9 µM in the assay on 786-0 renal.
For the compound `Fc1ccc(C(=NCc2ccccc2)N2CCOCC2)cc1`, the TGI in the assay with COLO 205 colon, with CAKI-1 renal, in the assay with ACHN renal, with LOX IMVI melanoma, in the assay with EKVX NSCLC and with OVCAR-3 ovarian was greater than 100 µM each time. The TGI with HOP-62 NSCLC, in the assay on MALME-3M melanoma and in the assay with 786-0 renal was greater than 100 µM in each case.
With `O=C(CCN1CCCC1)Nc1ccc2c(NCCCCc3ccccc3)c3ccccc3nc2c1`, the GI50 with COLO 205 colon was 0.453 µM; in the assay with CAKI-1 renal, 9.49 µM; with ACHN renal, 1.32 µM; in the assay on EKVX NSCLC, 1.39 µM; in the assay on OVCAR-3 ovarian, 1.25 µM; with MALME-3M melanoma, 1.72 µM. Further, the GI50 in the assay with HCC-2998 colon is 0.815 µM. Besides, the TGI in the assay on COLO 205 colon came to 1.87 µM; in the assay on CAKI-1 renal, 22.3 µM; with ACHN renal it was 2.59 µM; with EKVX NSCLC, 2.73 µM; with OVCAR-3 ovarian, 2.57 µM; in the assay with MALME-3M melanoma, 3.26 µM. Further, the TGI in the assay on HCC-2998 colon is 2.14 µM.
For `COC(=O)C1Cc2c([nH]c3ccccc23)-c2[nH]c3ccccc3c2CC(NC(C)=O)C(=O)NCC(=O)N1` (centres undefined), the TGI in the assay with COLO 205 colon, in the assay on CAKI-1 renal, with ACHN renal, in the assay on LOX IMVI melanoma, in the assay on EKVX NSCLC and with OVCAR-3 ovarian was greater than 100 µM each time. For the same compound, the TGI in the assay with HOP-62 NSCLC, in the assay with HCC-2998 colon and in the assay with 786-0 renal was greater than 100 µM in each case.
Consider `CC(=O)c1nc2ccccc2n1CC(=O)c1ccc([N+](=O)[O-])cc1`, for which the TGI in the assay on COLO 205 colon was greater than 100 µM; in the assay on CAKI-1 renal, 53.7 µM; in the assay on LOX IMVI melanoma it was 23.2 µM; in the assay on EKVX NSCLC, greater than 100 µM; in the assay on OVCAR-3 ovarian, 35.4 µM; with HOP-62 NSCLC, 17.6 µM. The TGI in the assay with MALME-3M melanoma is 33.2 µM; in the assay on 786-0 renal it was 15.9 µM.
As for `O=c1[nH]c2ccc(CC(=S)N3CCN(c4ccccc4)CC3)cc2s1`, the TGI in the assay on COLO 205 colon, in the assay with CAKI-1 renal, in the assay on ACHN renal, in the assay on LOX IMVI melanoma, in the assay on EKVX NSCLC and with OVCAR-3 ovarian was greater than 100 µM each time. Further, the TGI in the assay on HOP-62 NSCLC was 50.1 µM; in the assay on MALME-3M melanoma it was 55.5 µM; in the assay on 786-0 renal, greater than 100 µM.
Regarding `CCOC(=O)/C(O)=C(\C=N\C(=S)Nc1ccc(Cl)c(Cl)c1)C(=O)OCC`, the TGI in the assay on COLO 205 colon, with CAKI-1 renal, in the assay on ACHN renal, with LOX IMVI melanoma, in the assay on EKVX NSCLC and in the assay with OVCAR-3 ovarian was greater than 100 µM each time. Further, the TGI with HOP-62 NSCLC, with MALME-3M melanoma and in the assay on 786-0 renal was greater than 100 µM in each case.
As for `CC(C)(C)NCC(O)COc1cccc2[nH]c(C#N)cc12` (centres undefined), the TGI in the assay on COLO 205 colon, in the assay on CAKI-1 renal, in the assay with ACHN renal, in the assay with EKVX NSCLC, with OVCAR-3 ovarian and in the assay with HOP-62 NSCLC was greater than 100 µM each time. Also, the TGI in the assay with MALME-3M melanoma and in the assay with 786-0 renal was greater than 100 µM in each case.
For the compound `OC(Cn1cncn1)(Cn1cncn1)c1ccc(Cl)cc1Cl`, the TGI with COLO 205 colon, with CAKI-1 renal, with ACHN renal, in the assay on LOX IMVI melanoma, with OVCAR-3 ovarian and in the assay with HOP-62 NSCLC was greater than 100 µM in each case. The TGI with MALME-3M melanoma and in the assay with 786-0 renal was greater than 100 µM throughout.
As to `Cc1ccc(S(=O)(=O)OC2CN3CCC2CC3)cc1` (centres undefined), the TGI in the assay on COLO 205 colon, in the assay on CAKI-1 renal, in the assay on ACHN renal, in the assay on LOX IMVI melanoma, in the assay with EKVX NSCLC and in the assay on OVCAR-3 ovarian was greater than 100 µM throughout. Besides, the TGI in the assay with HOP-62 NSCLC, in the assay with MALME-3M melanoma and in the assay on 786-0 renal was greater than 100 µM in each case.
